Experimental findings from patent US20030166007A1, “Chemical proteomics” (MDS Proteomics Inc., priority 2002, published 2003) are described below.

“Also recorded” adds a separate entry of the source.

Holding throughout (experiment): MTX-agarose affinity chromatography of cell lysate, MS identification
In assay [1] the target is T1, Hypoxanthine phosphoribosyltransferase (HPRT) (Homo sapiens, UniProt P00492).
T1 construct: endogenous in cells; host or cells: HEK 293
T1 sequence (P00492 1-218): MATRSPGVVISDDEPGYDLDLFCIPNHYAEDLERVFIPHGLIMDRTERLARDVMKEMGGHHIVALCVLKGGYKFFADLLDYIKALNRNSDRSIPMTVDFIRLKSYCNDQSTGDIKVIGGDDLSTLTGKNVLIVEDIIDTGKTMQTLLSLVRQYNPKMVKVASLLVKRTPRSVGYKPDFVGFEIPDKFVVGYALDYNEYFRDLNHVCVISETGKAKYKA
It is filed as binding. To be noted: HEK 293 lysate, lane 9.

The target in assay [2] is T2, Propionyl CoA carboxylase (Homo sapiens, UniProt P05165+P05166).
T2 construct: endogenous in cells; host or cells: HEK 293
T2 sequence (P05165 53-728): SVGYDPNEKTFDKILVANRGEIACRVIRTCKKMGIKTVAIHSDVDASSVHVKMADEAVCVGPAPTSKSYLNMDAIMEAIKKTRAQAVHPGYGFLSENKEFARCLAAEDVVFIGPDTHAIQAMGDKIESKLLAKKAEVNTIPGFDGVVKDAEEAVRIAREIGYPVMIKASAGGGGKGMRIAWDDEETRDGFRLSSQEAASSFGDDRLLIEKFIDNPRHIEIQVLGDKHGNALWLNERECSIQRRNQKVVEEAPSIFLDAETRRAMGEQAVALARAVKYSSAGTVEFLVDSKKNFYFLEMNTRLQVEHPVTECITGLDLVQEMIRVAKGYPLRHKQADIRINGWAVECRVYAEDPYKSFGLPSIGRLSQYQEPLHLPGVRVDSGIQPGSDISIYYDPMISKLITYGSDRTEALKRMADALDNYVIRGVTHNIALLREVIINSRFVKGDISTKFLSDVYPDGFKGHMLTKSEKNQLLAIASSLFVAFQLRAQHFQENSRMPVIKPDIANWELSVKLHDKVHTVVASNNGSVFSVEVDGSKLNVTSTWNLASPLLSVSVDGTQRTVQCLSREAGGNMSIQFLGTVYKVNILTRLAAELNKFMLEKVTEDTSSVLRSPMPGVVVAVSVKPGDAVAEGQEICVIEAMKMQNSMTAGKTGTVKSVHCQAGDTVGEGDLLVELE
T2 sequence (P05166 29-539): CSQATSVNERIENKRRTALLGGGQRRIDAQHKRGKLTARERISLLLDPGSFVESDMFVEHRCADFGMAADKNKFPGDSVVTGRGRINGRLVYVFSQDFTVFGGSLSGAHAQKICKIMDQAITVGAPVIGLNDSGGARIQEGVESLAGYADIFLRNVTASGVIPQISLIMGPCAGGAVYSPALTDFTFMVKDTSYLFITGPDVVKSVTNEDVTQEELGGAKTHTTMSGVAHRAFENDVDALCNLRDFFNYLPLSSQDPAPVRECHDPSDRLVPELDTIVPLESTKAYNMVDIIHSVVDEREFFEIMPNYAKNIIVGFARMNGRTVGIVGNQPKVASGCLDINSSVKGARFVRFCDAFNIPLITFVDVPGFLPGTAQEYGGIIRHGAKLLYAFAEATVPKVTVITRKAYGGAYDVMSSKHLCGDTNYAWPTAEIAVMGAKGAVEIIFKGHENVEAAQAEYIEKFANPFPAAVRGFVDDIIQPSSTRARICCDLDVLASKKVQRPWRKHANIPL
It is filed as binding. To be noted: HEK 293 lysate.

For assay [3], the target named is T3, Divalent Cation tolerant protein CUTA (Homo sapiens, UniProt O60888).
T3 construct: endogenous in cells; host or cells: HEK 293
T3 sequence (O60888 33-179): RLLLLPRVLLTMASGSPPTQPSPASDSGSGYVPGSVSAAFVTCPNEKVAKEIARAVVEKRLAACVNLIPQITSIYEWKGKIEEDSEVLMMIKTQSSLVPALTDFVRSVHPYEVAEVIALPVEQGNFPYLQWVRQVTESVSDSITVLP
It is filed as binding. To be noted: HEK 293 lysate.

For assay [4], the target named is T4, Nudix 5 (Homo sapiens, UniProt Q9UKK9).
T4 construct: endogenous in cells; host or cells: HEK 293
It is filed as binding. To be noted: HEK 293 lysate.

The target in assay [5] is T5, AIR carboxylase (Homo sapiens, UniProt P22234).
T5 construct: endogenous in cells; host or cells: HEK 293
T5 sequence (P22234 1-425): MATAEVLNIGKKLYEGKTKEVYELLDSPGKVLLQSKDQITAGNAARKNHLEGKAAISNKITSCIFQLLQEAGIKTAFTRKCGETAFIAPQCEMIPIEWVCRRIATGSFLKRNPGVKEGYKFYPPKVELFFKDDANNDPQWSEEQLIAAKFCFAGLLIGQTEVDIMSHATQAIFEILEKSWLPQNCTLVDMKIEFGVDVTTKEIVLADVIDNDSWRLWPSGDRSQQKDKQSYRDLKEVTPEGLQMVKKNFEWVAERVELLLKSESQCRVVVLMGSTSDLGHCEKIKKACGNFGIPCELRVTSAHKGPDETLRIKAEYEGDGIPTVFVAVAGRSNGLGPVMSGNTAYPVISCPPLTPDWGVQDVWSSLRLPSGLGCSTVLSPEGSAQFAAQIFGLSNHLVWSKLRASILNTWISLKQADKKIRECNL
It is filed as binding. To be noted: HEK 293 lysate.

Assay [6] addresses T6, Deoxycytidine Kinase (Homo sapiens, UniProt P27707).
T6 construct: endogenous in cells; host or cells: HEK 293
It is filed as binding. To be noted: HEK 293 lysate.

Assay [7] deals with T7, SAICAR synthetase (Homo sapiens, UniProt P22234).
T7 construct: endogenous in cells; host or cells: HEK 293
T7 sequence (P22234 1-425): T5 sequence (P22234 1-425)
It is filed as binding. To be noted: HEK 293 lysate; bifunctional enzyme with AIR carboxylase.

Assay [8] deals with Inosine monophosphate dehydrogenase. It is filed as binding, human. To be noted: HEK 293 lysate.
Assay [9] concerns the target Amido phosphoribosyltransferase (Homo sapiens, UniProt Q06203). It is filed as binding. The arrangement: endogenous in cells; host or cells: HEK 293 (also Jurkat, K562, A431). To be noted: lysates from HEK293, Jurkat, K562 and A431.

Chain of Amido phosphoribosyltransferase (Q06203 12-517): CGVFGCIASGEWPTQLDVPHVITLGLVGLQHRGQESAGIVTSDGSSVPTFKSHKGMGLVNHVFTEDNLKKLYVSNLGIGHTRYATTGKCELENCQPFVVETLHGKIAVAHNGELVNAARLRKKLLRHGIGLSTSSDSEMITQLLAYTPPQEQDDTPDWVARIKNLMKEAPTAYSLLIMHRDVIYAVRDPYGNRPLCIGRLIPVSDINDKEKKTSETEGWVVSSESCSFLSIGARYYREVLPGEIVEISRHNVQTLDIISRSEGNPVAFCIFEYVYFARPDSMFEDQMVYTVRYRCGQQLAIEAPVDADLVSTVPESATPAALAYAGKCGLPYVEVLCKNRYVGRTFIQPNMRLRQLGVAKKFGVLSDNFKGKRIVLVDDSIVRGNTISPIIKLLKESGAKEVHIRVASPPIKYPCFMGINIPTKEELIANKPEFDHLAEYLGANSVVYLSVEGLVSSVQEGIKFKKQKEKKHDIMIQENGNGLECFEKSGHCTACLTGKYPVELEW
T6 sequence (P27707 whole entry): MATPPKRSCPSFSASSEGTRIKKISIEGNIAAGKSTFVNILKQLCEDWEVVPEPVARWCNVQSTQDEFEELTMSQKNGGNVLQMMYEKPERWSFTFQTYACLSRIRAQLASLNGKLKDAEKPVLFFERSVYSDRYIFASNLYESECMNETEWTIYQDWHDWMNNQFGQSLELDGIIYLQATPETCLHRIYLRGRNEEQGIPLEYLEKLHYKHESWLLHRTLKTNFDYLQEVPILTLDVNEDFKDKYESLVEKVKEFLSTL

Turning to `CN(Cc1cnc2nc(N)nc(N)c2n1)c1ccc(C(=O)N[C@@H](CCC(=O)O)C(=O)O)cc1` [Methotrexate], the “Protein identified by Mass Spec.; New MTX interactor” value in [1] is given as “identified in the pull down in lane 9”; in assay [1] (listed as MTX), “✓”; in assay [8], “binds this enzyme directly”; in assay [8] (listed as MTX), “✓”; in [9], “found to interact with Methotrexate”; in assay [9] (listed as MTX), “✓”. Moreover, the “Association with the Methotrexate matrix” value in assay [2] was “pulled down consistently”; in [3], “consistently found; also recorded: pulled down consistently”; in [4] it was “consistently found; also recorded: direct interactions with the Methotrexate probe”; in assay [5], “associated indirectly with Methotrexate”; in assay [6] it was “indirect interaction with Methotrexate”; in assay [7] it was “a single band contained peptides from both domains”.
